Results on 15 compounds are retold here after patent US20110070190A1 (Roche Palo Alto LLC, priority 2009, published 2011).

SMILES strings stand for the structures.

In series [1] the target is T1, HCV polymerase (NS5B570n-Con1) (Hepatitis C virus genotype 1b, UniProt Q9WMX2).
T1 construct: a 21 amino acid C-terminal deletion of full-length HCV polymerase; made in house; host or cells: E. coli BL21(DE3) pLysS, plasmid pET17b
Description: HCV NS5B RNA polymerase activity (incorporation of radiolabeled nucleotide into acid insoluble RNA). Type of series: biochemical, HCV Con1 strain. Here is the method:
The enzymatic activity of HCV polymerase (NS5B570n-Con1) was measured as the incorporation of radiolabeled nucleotide monophosphates into acid insoluble RNA products. Unincorporated radiolabeled substrate was removed by filtration and scintillant was added to the washed and dried filter plate containing radiolabeled RNA product. The amount of RNA product generated by NS5B570n-Con1 at the end of the reaction was directly proportional to the amount of light emitted by the scintillant.
The HCV polymerase used in the enzymatic activity assay is a 21 amino acid C-terminal deletion of full-length HCV polymerase derived from HCV Con1 strain, genotype 1b (GenBank accession number AJ242654) (NS5B570n-Con1). The NS5B570n-Con1 was sub-cloned downstream to the T7 promoter of the plasmid expression construct pET17b and transformed into E. coli strain BL21(DE3) pLysS for protein expression. A single colony was used to start an innoculum for a 10 L culture in LB media supplemented with 100 μg/mL ampicillin at 37° C. Protein expression was induced by the addition of 0.25 mM isopropyl-β-D-thiogalactopyranoside (IPTG) when the optical density of the culture at […] was 0.8. Induction of protein expression was carried out at 30° C. for 16 h after which the cells were harvested by centrifugation. NS5B570n-Con1 was purified to homogeneity using a three-column purification protocol including subsequent column chromatography on Ni-NTA, SP-Sepharose HP and Superdex 75 resins.
Enzymatic reactions in the presence of cIRES RNA template (see paragraph [00213]) contained 20 nM cIRES RNA, 20 nM NS5B570n-Con1 enzyme, 0.5 μCi of tritiated UTP (Perkin Elmer catalog no. TRK-412; specific activity: 30 to 60 Ci/mmol;), 1 μM each ATP, CTP, and GTP, 40 mM Tris-HCl pH 8.0, 40 mM NaCl, 4 mM DTT (dithiothreitol), 4 mM MgCl2, 5 μl of compound serial diluted in DMSO, and nuclease-free water to a final reaction volume of 50 μl. Enzymatic reactions in the presence of poly A RNA template (see paragraph [00213]) contained 20 nM Poly A:oligo(rU)16 premixed (see section 0004), 20 nM NS5B570n-Con1 enzyme, 1 μCi of tritiated UTP (Perkin Elmer catalog no. TRK-412; specific activity: 30 to 60 Ci/mmol), 40 mM Tris-HCl pH 8.0, 40 mM NaCl, 4 mM DTT (dithiothreitol), 4 mM MgCl2, 5 μl of compound serial diluted in DMSO, and nuclease-free water to a final reaction volume of 50 μl. Reaction mixtures were assembled in 96-well filter plates (cat #MADVN0B, Millipore Co.) and incubated for 2 h at 30° C. Reactions were stopped by addition of 10% final (v/v) trichloroacetic acid and incubated for 40 min at 4° C. Reactions were filtered, washed with 8 reaction volumes of 10% (v/v) trichloroacetic acetic acid, 4 reaction volumes of 70% (v/v) ethanol, air dried, and 25 μl of scintillant (Microscint 20, Perkin-Elmer) was added to each reaction well.
Two RNA templates were used to assay compounds described herein. The cIRES RNA template was 377 nucleotide long and consisted of a partial complementary sequence (36 nucleotides) of the core protein, followed by 341 nucleotide of the complementary sequence of the internal ribosome entry site. The poly A RNA template (GE Amersham catalog number 27-4110) was a homopolymeric RNA pre-annealed to a oligo(rU)16 primer at a molar ratio of 3-to-1 (primer-template).
The amount of light emitted from the scintillant was converted to counts per minute (CPM) on a Topcount® plate reader (Perkin-Elmer, Energy Range: Low, Efficiency Mode: Normal, Count Time: 1 min, Background Subtract: none, Cross talk reduction: Off).
Data was analyzed in Excel® (Microsoft®) and ActivityBase® (Idbs®). The reaction in the absence of enzyme was used to determine the background signal, which was subtracted from the enzymatic reactions. Positive control reactions were performed in the absence of compound, from which the background corrected activity was set as 100% polymerase activity. All data was expressed as a percentage of the positive control. […]

Series [2] relates to HCV replicon cells (2209-23), genotype 1b replicon in human hepatoma Huh7 cells. Kind of series: HCV replicon assay (Renilla luciferase reporter). The class given is cell-based, HCV genotype 1b. To be noted: Hepatitis C virus, Huh-7, 72 h; 2209-23 cells, three days incubation.
Series [3] deals with HCV. The following applies: cited from earlier work.

A word on the IC50: it is the midpoint of a concentration-inhibition curve. Higher therefore signals weaker potency. As a reminder, the melting point is the temperature of the solid-liquid transition.

The compound `O=c1ncn(Cc2ccc(Cl)cc2)c2cc(-c3ccc(OCc4ccncc4)cc3)sc12` [Compound I-58] came in with a melting point of 257 to 259 °C. Also, in series [1], the half-inhibitory concentration (IC50) was 49 nM.

For `O=c1ncn(Cc2ccc(Cl)cc2)c2cc(-c3ccc(OCc4cccnc4)cc3)sc12` [Compound I-50, 1-(4-Chloro-benzyl)-6-[4-(pyridin-3-ylmethoxy)-phenyl]-1H-thieno[3,2-d]pyrimidin-4-one], the melting point fell in the range of 255 to 257 °C. In series [1], this compound showed an IC50 of 103 nM.

As to `Cc1cc(N)nc(COc2ccc(-c3cc4c(s3)c(=O)ncn4Cc3ccc(Cl)cc3)cc2)n1` [Compound I-45, 6-[4-(4-Amino-6-methyl-pyrimidin-2-ylmethoxy)-phenyl]-1-(4-chloro-benzyl)-1H-thieno[3,2-d]pyrimidin-4-one], the melting point is 272 to 274 °C. The same compound came in with an IC50 in series [1] of 372 nM.

Regarding `O=c1ncn(Cc2ccc(Cl)cc2)c2cc(-c3ccc(OCc4ccccc4)c(Cl)c3)sc12` [Compound I-44, 6-(4-Benzyloxy-3-chloro-phenyl)-1-(4-chloro-benzyl)-1H-thieno[3,2-d]pyrimidin-4-one], the melting point lay within 222 to 224 °C. Also, the IC50 in series [1] stood at 30 nM.

As for `Cc1cc(N)n2nc(-c3ccc(-c4cc5c(s4)c(=O)ncn5Cc4ccc(Cl)cc4)cc3Cl)cc2n1` [Compound I-2, 6-[4-(7-Amino-5-methyl-pyrazolo[1,5-a]pyrimidin-2-yl)-3-chloro-phenyl]-1-(4-chloro-benzyl)-1H-thieno[3,2-d]pyrimidin-4-one], the values for the IC50 in series [1] and in series [2] were 4 nM and 4.1 nM, respectively.

`Cc1ccc(Cn2cnc(=O)c3sc(-c4ccc(-c5cc6nc(C)cc(N)n6n5)cc4)cc32)cc1` [Compound I-38, 6-[4-(7-Amino-5-methyl-pyrazolo[1,5-a]pyrimidin-2-yl)-phenyl]-1-(4-methyl-benzyl)-1H-thieno[3,2-d]pyrimidin-4-one]: the IC50 was 210 nM in series [1] and 47.2 nM in series [2].

As to `O=c1ncn(Cc2ccc(Cl)cc2)c2cc(-c3ccc(OCc4cnccn4)cc3)sc12` [Compound I-16, 1-(4-chloro-benzyl)-6-[4-(pyrazin-2-ylmethoxy)-phenyl]-1H-thieno[3,2-d]pyrimidin-4-one], the melting point fell in the range of 236.9 to 239.6 °C. Also, the IC50 in series [1] is 71 nM.

The compound `Cc1ccc(Cn2cnc(=O)c3sc(-c4ccccc4)cc32)c(F)c1` [Compound I-21] gave a melting point of 225.1 to 225.8 °C. The compound also gave a half-inhibitory concentration (IC50) in series [1] of 126 nM.

In turn, `O=c1ncn(Cc2ccc(Cl)cc2)c2cc(-c3ccc(OCc4ccccn4)c(Cl)c3)sc12` [Compound I-6, 1-(4-chloro-benzyl)-6-[3-chloro-4-(pyridin-2-ylmethoxy)-phenyl]-1H-thieno[3,2-d]pyrimidin-4-one] showed a melting point of 272 to 274 °C. In series [1], this compound displayed an IC50 of 18 nM.

Regarding `Cc1ccc(Cn2cnc(=O)c3sc(-c4ccc(C(C)(C)C)cc4)cc32)cc1` [Compound I-29], the melting point is 260.5 to 261.5 °C. In addition, the IC50 in series [1] stood at 223 nM.

On to `NC(=O)c1ncn([C@@H]2O[C@H](CO)[C@@H](O)[C@H]2O)n1` [ribavirin, 1-((2R,3R,4S,5R)-3,4-Dihydroxy-5-hydroxymethyl-tetrahydro-furan-2-yl)-1H-[1,2,4]triazole-3-carboxylic acid amide], for which the “effect on serum levels of HCV-RNA” value in series [3] (monotherapy / sole treatment) is “does not lower serum levels of HCV-RNA”. Also, the “patients with serum amino transferase levels reduced to normal” value in series [3] (monotherapy) is on record as 40%.

For `N#Cc1ccc(-c2cc3c(s2)c(=O)ncn3Cc2ccc(Cl)cc2)cc1` [Compound I-52, 4-[1-(4-Chloro-benzyl)-4-oxo-1,4-dihydro-thieno[3,2-d]pyrimidin-6-yl]-benzonitrile], the melting point is > 300 °C. Also, 1600 nM corresponded to half-maximal inhibition in series [1] (IC50).

`Cc1ccc(Cn2cnc(=O)c3sc(-c4ccc(Cl)cc4)cc32)cc1` [Compound I-22] gave a melting point of 244.1 to 247.5 °C. For the same compound, half-maximal inhibition in series [1] (IC50) was put at 131 nM.

Consider `O=c1ncn(Cc2ccc(Cl)cc2)c2cc(-c3ccc(OCc4ccccn4)cc3)sc12` [Compound I-28, 1-(4-Chloro-benzyl)-6-[4-(pyridin-2-ylmethoxy)-phenyl]-1H-thieno[3,2-d]pyrimidin-4-one], for which the melting point was 233 to 235 °C. The compound also registered an IC50 in series [1] of 51 nM.

In turn, `COc1cccc(C(=O)Nc2ccc(-c3cc4c(s3)c(=O)ncn4Cc3ccc(Cl)cc3)cc2Cl)c1` [Compound I-26] had an IC50 in series [1] of 162 nM.
